Among the test systems are A549 NSCLC; CAKI-1 renal; CCRF-CEM leukemia; COLO 205 colon; HCC-2998 colon; HT29 colon; IGROV1 ovarian; KM12 colon; NCI-H226 lung; OVCAR-3 ovarian; PC-3 prostate; RXF 393 renal; SK-MEL-2 melanoma; SK-OV-3 ovarian; SN12C renal; SNB-19 CNS; T-47D breast; OVCAR-4 ovarian; SR leukemia.
Common to all, as to assay: inhibition of tumour cell growth, NCI panel, 48 h

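In this assay, cells in 96-well plates receive the compound at five concentrations for 48 hours. Endpoints are linearly interpolated between the surrounding concentrations. At the TGI there is no net growth.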 Where a SMILES comes first, the peptide text is derived from it. [ ]: non-standard residue; d: D form. The star is where a group is joined. X28 = COC1=CC(=O)N(C(=O)[C@@H](O*)C(C)C)[C@H]1Cc1ccccc1; NMeV = CN[C@H](C(=O)O)C(C)C; Hexanoyl = CCCCCC(=O)*

For the compound `O=[N+]([O-])C(C(Cl)=C(Cl)Cl)=C(N(Cc1ccccc1)Cc1ccccc1)N(Cc1ccccc1)Cc1ccccc1`, the TGI in the experiment on A549 NSCLC is more than 100 µM; in the experiment with CAKI-1 renal, more than 100 µM; with CCRF-CEM leukemia, 60.6 µM; in the experiment with COLO 205 colon it was more than 100 µM; in the experiment on HCC-2998 colon, 55.4 µM; with HT29 colon, more than 100 µM. Besides, the TGI in the experiment with IGROV1 ovarian, in the experiment on KM12 colon, with NCI-H226 lung, with OVCAR-3 ovarian, in the experiment with PC-3 prostate and in the experiment on RXF 393 renal was more than 100 µM in each case. Also, the TGI with SK-MEL-2 melanoma was 98.3 µM; with SK-OV-3 ovarian, more than 100 µM; with SN12C renal, more than 100 µM; in the experiment on SNB-19 CNS it was more than 100 µM; with T-47D breast it was more than 100 µM.

Consider `CC(C)(Br)C(Br)CCC(C)(Br)C(Br)CO` (stereo not drawn), for which the TGI in the experiment on A549 NSCLC, in the experiment with CAKI-1 renal, in the experiment on CCRF-CEM leukemia, in the experiment on COLO 205 colon, in the experiment with HCC-2998 colon and with HT29 colon was more than 10 µM in each case. The TGI with IGROV1 ovarian, in the experiment with NCI-H226 lung, in the experiment on OVCAR-3 ovarian, with OVCAR-4 ovarian, in the experiment on PC-3 prostate and in the experiment with RXF 393 renal was more than 10 µM each time. Moreover, the TGI with SK-OV-3 ovarian, in the experiment on SN12C renal, in the experiment on SNB-19 CNS and with T-47D breast was more than 10 µM in each case.

`CCCCCC(=O)N[C@H](C(=O)N[C@H](C(=O)N(C)[C@H](C(=O)N1CCC[C@H]1C(=O)N1CCC[C@H]1C(=O)O[C@H](C(=O)N1C(=O)C=C(OC)[C@@H]1Cc1ccccc1)C(C)C)C(C)C)C(C)C)C(C)C` (Hexanoyl-VV[NMeV]PP-X28): the TGI in the experiment on CAKI-1 renal, in the experiment on CCRF-CEM leukemia, with COLO 205 colon, in the experiment on HCC-2998 colon, in the experiment with HT29 colon and with IGROV1 ovarian was more than 100 µM throughout. The TGI was more than 100 µM in the experiment with KM12 colon; more than 100 µM in the experiment on NCI-H226 lung; more than 100 µM with OVCAR-3 ovarian; more than 100 µM in the experiment on OVCAR-4 ovarian; 85.5 µM in the experiment with PC-3 prostate; 62.7 µM in the experiment with RXF 393 renal. The TGI in the experiment with SK-MEL-2 melanoma, in the experiment on SK-OV-3 ovarian, in the experiment on SN12C renal and in the experiment with T-47D breast was more than 100 µM each time.

Take `N#CCc1nc2ccccc2c(=O)[nH]1`: the TGI in the experiment with A549 NSCLC, with CAKI-1 renal, in the experiment with COLO 205 colon, with HCC-2998 colon, in the experiment with HT29 colon and in the experiment with IGROV1 ovarian was more than 100 µM throughout. For the same compound, the TGI in the experiment on KM12 colon, in the experiment with NCI-H226 lung, in the experiment with OVCAR-3 ovarian, in the experiment on OVCAR-4 ovarian, in the experiment on PC-3 prostate and in the experiment on SK-MEL-2 melanoma was more than 100 µM throughout. For the same compound, the TGI in the experiment on SK-OV-3 ovarian, in the experiment on SN12C renal, in the experiment with SNB-19 CNS and with T-47D breast was more than 100 µM in each case.

As to `O=C(CSc1nnc(-c2ccc(N=Cc3ccc(Cl)cc3)cc2)o1)Nc1ccc(Cl)cc1Cl`, the TGI in the experiment with A549 NSCLC is more than 100 µM; in the experiment with CAKI-1 renal, more than 100 µM; in the experiment on CCRF-CEM leukemia, more than 100 µM; with COLO 205 colon it was 78 µM; with HCC-2998 colon, more than 100 µM; with HT29 colon it was 60.5 µM. In addition, the TGI in the experiment on IGROV1 ovarian was 58.7 µM; in the experiment on KM12 colon it was 72.4 µM; in the experiment on NCI-H226 lung, 58.2 µM; with OVCAR-4 ovarian it was 88 µM; with RXF 393 renal it was more than 100 µM; in the experiment on SK-MEL-2 melanoma, 47.3 µM. Besides, the TGI in the experiment on SK-OV-3 ovarian stood at 76.7 µM; in the experiment on SN12C renal it was 49 µM; in the experiment on SNB-19 CNS, 85 µM.

On to `COc1ccc(OCc2nc3cc(C(F)(F)F)ccc3nc2-c2ccccc2)cc1`, for which the TGI in the experiment with A549 NSCLC, in the experiment with CAKI-1 renal, with CCRF-CEM leukemia, with COLO 205 colon, in the experiment with HCC-2998 colon and in the experiment on HT29 colon was more than 100 µM throughout. The TGI in the experiment on KM12 colon, with NCI-H226 lung, in the experiment with OVCAR-3 ovarian, in the experiment with OVCAR-4 ovarian, in the experiment on PC-3 prostate and in the experiment with RXF 393 renal was more than 100 µM throughout. Moreover, the TGI with SK-MEL-2 melanoma, in the experiment on SK-OV-3 ovarian, in the experiment on SN12C renal, in the experiment with SNB-19 CNS and in the experiment on T-47D breast was more than 100 µM throughout.

For `CCOC(=O)C(=[N+]=[N-])C(=O)C1(C(=O)OCC)CCN(C(=O)c2ccccc2)C1=O` (stereo not drawn), the TGI in the experiment with A549 NSCLC, in the experiment with CAKI-1 renal, in the experiment on CCRF-CEM leukemia, with COLO 205 colon, in the experiment on HT29 colon and with IGROV1 ovarian was more than 100 µM throughout. Further, the TGI with KM12 colon, with NCI-H226 lung, with OVCAR-4 ovarian, in the experiment on PC-3 prostate, with RXF 393 renal and in the experiment on SK-MEL-2 melanoma was more than 100 µM each time. Further, the TGI in the experiment on SK-OV-3 ovarian, in the experiment on SN12C renal, with SNB-19 CNS and in the experiment with T-47D breast was more than 100 µM in each case.

As to `COc1ccc(/C=C2\NC(=S)N(CN3CCCCC3)C2=O)cc1`, the TGI in the experiment with A549 NSCLC was more than 100 µM; in the experiment on CCRF-CEM leukemia, more than 100 µM; in the experiment on COLO 205 colon it was 85.6 µM; with HT29 colon it was 41 µM; in the experiment with IGROV1 ovarian it was more than 100 µM; in the experiment on KM12 colon it was more than 100 µM. The TGI in the experiment on NCI-H226 lung is more than 100 µM; with OVCAR-3 ovarian, more than 100 µM; in the experiment on OVCAR-4 ovarian it was 78.8 µM; with PC-3 prostate it was more than 100 µM; in the experiment on SK-MEL-2 melanoma it was more than 100 µM; with SK-OV-3 ovarian, more than 100 µM. Also, the TGI in the experiment with SN12C renal, with SNB-19 CNS and with SR leukemia was more than 100 µM each time.

(Values after PubChem BioAssay (NCI).)
